Measured values published in ChEMBL document CHEMBL1201862, “PubChem BioAssay data set” (2004).
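Interpolation was linear, between the two tested concentrations surrounding the appropriate level; five concentrations were tested over 48 hours in 96-well plates. GI50 = concentration required for 50% inhibition of growth.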 Calls of active or inactive are those of the source. Rule as the data show it: active = GI50 up to about 1.1 µM and inactive = higher.

Key:
Experiment in all cases: NCI anticancer screen, dose series, 48 h
SNB-75 = tested on: SNB-75
SK-OV-3 = tested on: SK-OV-3
SK-MEL-2 = tested on: SK-MEL-2
NCI-H23 = tested on: NCI-H23
SNB-19 = tested on: SNB-19
OVCAR-3 = tested on: OVCAR-3
NCI-H522 = tested on: NCI-H522
OVCAR-4 = tested on: OVCAR-4
SK-MEL-28 = tested on: SK-MEL-28
TK-10 = tested on: TK-10
UACC-257 = tested on: UACC-257
OVCAR-8 = tested on: OVCAR-8
UACC-62 = tested on: UACC-62
SF-295 = tested on: SF-295
K562 = tested on: K562
UO-31 = tested on: UO-31
ACHN = tested on: ACHN
HOP-92 = tested on: HOP-92

Measured: GI50

O=C(O)C1=Cc2cccc3cccc(c23)C1=O
inactive: SNB-75 > 100 µM | SK-OV-3 > 100 µM | SK-MEL-2 > 100 µM | NCI-H23 > 100 µM | SNB-19 > 100 µM | OVCAR-3 > 100 µM | NCI-H522 > 100 µM | OVCAR-4 > 100 µM | SK-MEL-28 > 100 µM | TK-10 > 100 µM | UACC-257 > 100 µM | OVCAR-8 > 100 µM | UACC-62 > 100 µM | SF-295 > 100 µM | K562 > 100 µM | UO-31 81.8 µM | ACHN > 100 µM

C/C(CC(=O)Nc1ccc(C)cc1C)=N/N=C(N)N
inactive: SNB-75 > 100 µM | SK-OV-3 > 100 µM | SK-MEL-2 > 100 µM | NCI-H23 > 100 µM | OVCAR-3 > 100 µM | NCI-H522 > 100 µM | SK-MEL-28 > 100 µM | TK-10 > 100 µM | UACC-257 > 100 µM | OVCAR-8 > 100 µM | UACC-62 > 100 µM | SF-295 > 100 µM | HOP-92 > 100 µM | K562 > 100 µM | UO-31 > 100 µM | ACHN > 100 µM

NC(=S)N1N=C2CCCCCC[C@@H]2[C@H]1c1ccccc1
inactive: SNB-75 75.2 µM | SK-OV-3 > 100 µM | SK-MEL-2 64.6 µM | NCI-H23 40.2 µM | SNB-19 63.1 µM | OVCAR-3 39.3 µM | NCI-H522 21.2 µM | SK-MEL-28 89.7 µM | TK-10 63 µM | UACC-257 36.6 µM | OVCAR-8 44.5 µM | UACC-62 44.1 µM | SF-295 35.3 µM | K562 32.8 µM | UO-31 16.7 µM | ACHN 41.9 µM

NCCCOc1ccc([N+](=O)[O-])cc1Cl
inactive: SNB-75 61.1 µM | SK-MEL-2 > 100 µM | NCI-H23 > 100 µM | SNB-19 > 100 µM | OVCAR-3 > 100 µM | NCI-H522 5.62 µM | OVCAR-4 > 100 µM | SK-MEL-28 > 100 µM | TK-10 > 100 µM | UACC-257 > 100 µM | OVCAR-8 > 100 µM | UACC-62 > 100 µM | SF-295 > 100 µM | HOP-92 68.9 µM | K562 85.9 µM | UO-31 81.8 µM | ACHN > 100 µM

O=C(O)C(CO)NC(=O)n1c2ccccc2c2ccccc21 (stereo not given)
inactive: SK-OV-3 > 100 µM | SK-MEL-2 > 100 µM | NCI-H23 > 100 µM | SNB-19 > 100 µM | OVCAR-3 > 100 µM | NCI-H522 > 100 µM | SK-MEL-28 > 100 µM | TK-10 > 100 µM | UACC-257 > 100 µM | OVCAR-8 > 100 µM | UACC-62 > 100 µM | SF-295 > 100 µM | HOP-92 > 100 µM | K562 > 100 µM | ACHN > 100 µM

O=C1C=C(c2[nH]c3ccccc3c2C2=CC(=O)c3ccccc3C2=O)C(=O)c2ccccc21
inactive: SNB-75 26 µM | SK-OV-3 54.1 µM | NCI-H23 41.3 µM | SNB-19 70.1 µM | OVCAR-3 21.6 µM | OVCAR-4 33.7 µM | SK-MEL-28 57 µM | TK-10 94.4 µM | OVCAR-8 43.8 µM | UACC-62 24.9 µM | SF-295 36.1 µM | K562 22.3 µM | UO-31 > 100 µM | ACHN 44.9 µM

C/C(=N\NS(=O)(=O)c1ccc(C)cc1)c1cc2ccccc2n1C
inactive: SNB-75 59.2 µM | SK-MEL-2 > 100 µM | NCI-H23 > 100 µM | SNB-19 69.8 µM | NCI-H522 > 100 µM | OVCAR-4 > 100 µM | UACC-257 > 100 µM | OVCAR-8 > 100 µM | UACC-62 76.2 µM | SF-295 > 100 µM | K562 > 100 µM | UO-31 > 100 µM | ACHN > 100 µM

O=C(Nc1cc(Cl)ccc1Cl)c1cc2cccc(Cl)c2oc1=O
inactive: SNB-75 37.1 µM | SK-OV-3 > 100 µM | NCI-H23 > 100 µM | OVCAR-3 > 100 µM | NCI-H522 > 100 µM | SK-MEL-28 > 100 µM | TK-10 > 100 µM | UACC-257 61.2 µM | OVCAR-8 47.1 µM | UACC-62 > 100 µM | SF-295 > 100 µM | K562 > 100 µM | ACHN > 100 µM

CC(=O)NC1=C(N)C(=O)c2ccccc2C1=O
inactive: SNB-75 > 100 µM | SK-OV-3 > 100 µM | SK-MEL-2 90.6 µM | NCI-H23 59.2 µM | SNB-19 > 100 µM | OVCAR-3 20.2 µM | NCI-H522 79.4 µM | TK-10 > 100 µM | UACC-257 > 100 µM | OVCAR-8 > 100 µM | UACC-62 49.8 µM | SF-295 > 100 µM | HOP-92 > 100 µM | K562 57.5 µM | UO-31 > 100 µM | ACHN > 100 µM

O=C1Nc2c(ccc(Cl)c2I)C1=O
inactive: SK-OV-3 18.5 µM | SK-MEL-2 13.7 µM | NCI-H23 14.6 µM | SNB-19 42.3 µM | OVCAR-3 19.9 µM | NCI-H522 15.6 µM | OVCAR-4 16.9 µM | SK-MEL-28 18.4 µM | TK-10 36.2 µM | UACC-257 > 10 µM | OVCAR-8 28.2 µM | UACC-62 17.6 µM | SF-295 19.2 µM | K562 23.8 µM | UO-31 18.2 µM | ACHN 15.6 µM

CN(C)CCC(O)(c1ccccc1)C(O)(CCN(C)C)c1ccccc1 (stereo not given)
inactive: SNB-75 33.1 µM | SK-OV-3 > 100 µM | SK-MEL-2 > 100 µM | NCI-H23 > 100 µM | SNB-19 > 100 µM | OVCAR-3 > 100 µM | NCI-H522 > 100 µM | OVCAR-4 > 100 µM | SK-MEL-28 > 100 µM | TK-10 > 100 µM | UACC-257 22.3 µM | OVCAR-8 > 100 µM | UACC-62 > 100 µM | SF-295 53.7 µM | K562 48.9 µM | UO-31 > 100 µM | ACHN > 100 µM

CCc1cccc(C)c1NC(C)=O
inactive: SNB-75 > 100 µM | SK-OV-3 > 100 µM | SK-MEL-2 > 100 µM | NCI-H23 > 100 µM | OVCAR-3 > 100 µM | OVCAR-4 > 100 µM | SK-MEL-28 > 100 µM | TK-10 > 100 µM | UACC-257 > 100 µM | OVCAR-8 > 100 µM | UACC-62 > 100 µM | SF-295 > 100 µM | K562 > 100 µM | UO-31 > 100 µM | ACHN > 100 µM

Cc1cc(Cl)ccc1NC(=O)C1C(=O)N(c2ccc(Cl)cc2C)C(=O)/C1=N\NC(N)=S (stereo not given)
inactive: NCI-H23 19.8 µM | SNB-19 37.3 µM | OVCAR-3 32.8 µM | NCI-H522 17.1 µM | OVCAR-4 18.5 µM | SK-MEL-28 > 10 µM | TK-10 47.9 µM | UACC-257 59 µM | OVCAR-8 41.9 µM | UACC-62 31.6 µM | SF-295 29.9 µM | HOP-92 23.7 µM | K562 23.6 µM | UO-31 17 µM | ACHN 36.2 µM
